Results from patent US9527930B2, “FGF receptor-activating N-sulfate oligosaccharides, preparation thereof, and therapeutic use thereof” (priority 2009, dated 2016).

Target: FGF-2 (Homo sapiens, UniProt P09038)
Assay: in vitro cellular test of FGF-2 activation
Type: cell-based

Chain of FGF-2 (P09038 143-288): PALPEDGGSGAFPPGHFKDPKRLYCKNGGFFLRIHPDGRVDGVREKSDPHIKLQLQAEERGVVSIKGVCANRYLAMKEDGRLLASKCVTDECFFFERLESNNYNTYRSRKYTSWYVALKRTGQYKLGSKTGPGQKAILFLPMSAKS

Substance: Sodium [methyl(sodium 2-O-sodium sulfonato-α-L-idopyranosyluronate)-(1→4)-(2-deoxy-6-O-sodium sulfonato-2-sodium (sulfonatoamino)-α-D-glucopyranosyl)-(1→4)-[(sodium 2-O-sodium sulfonato-α-L-idopyranosyluronate)-(1→4)-(2-deoxy-6-O-sodium sulfonato-2-sodium sulfonatoamino)-α-D-glucopyranos)-(1→4)]2-2-O-sodium sulfonato-α-L-idopyranoside]uronate [Compound 3]
- FGF-2 activation compared with the hexasaccharide analogue (C. Tabeur et al.): better FGF-2 activators than the hexasaccharide analogue thereof
